These are literature values, as cited in patent publication US20050147629A1, “Pharmaceutical formulation comprising non-peptide renin inhibitor and surfactant” (priority 2002, published 2005).

SMILES strings stand for the structures.

For this series the following is noted: readily soluble = at least 1 g per 100 ml, poorly soluble = less than 1 g per 100 ml (b7).

In the case of `COCCCOc1cc(C[C@@H](C[C@H](N)[C@@H](O)C[C@H](C(=O)NCC(C)(C)C(N)=O)C(C)C)C(C)C)ccc1OC` [formula Ia], the solubility in water result is “very readily soluble in water”.
